Laboratory results as given in patent US10766869B2, “Triazoles for the treatment of demyelinating dieases” (Vertex Pharmaceuticals Incorporated, priority 2015, dated 2020).
Like-named read-outs stand apart in the source and are kept apart here.

Tested on: primary rat mixed cortical cells
Assay: In vitro myelination assay (MBP positive myelin strands, fold myelin pixels above background)
Type: cell-based
Conditions: for fold induction at 1 µM / fold induction at 10 µM: Rattus norvegicus
Method in brief: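 Read-out is total MBP-positive myelin strand pixels per well, detected by custom ridge-tracing software and reported as fold over untreated baseline. Primary P1 rat mixed cortical cells received compound (1.0 or 10.0 μM) for 14 days, with medium half-replaced on days 6 and 10. Standard deviation was taken across all replicates.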

[1] = 1.0 μM compound, relative to baseline of no added compound, read-out: Fold myelin pixels above background
[2] = 10.0 μM compound, relative to baseline of no added compound, read-out: Fold myelin pixels above background
[3] = 1.0 μM compound, relative to baseline of no added compound, read-out: Fold myelin pixels above background, 1.0 μM
[4] = 10.0 μM compound, relative to baseline of no added compound, read-out: Fold myelin pixels above background, 10.0 μM
[5] = 1.0 μM compound, read-out: Fold myelin pixels above background relative to baseline of no added compound
[6] = 10.0 μM compound, read-out: Fold myelin pixels above background relative to baseline of no added compound

Question: Cc1cc(Nc2ncn(-c3cc(F)cc(F)c3)n2)cc(N2CC(C)(O)C2)c1 [Compound 551, 1-[3-[[1-(3,5-difluorophenyl)-1,2,4-triazol-3-yl]amino]-5-methyl-phenyl]-3-methyl-azetidin-3-ol] was tested. Which fold induction at 1 µM [1] did it give?
Answer: Its fold induction at 1 µM is 100 to 1000.

Question: And the fold induction at 10 µM [2]?
Answer: The fold induction at 10 µM was 10 to 100.

Question: How did the fold induction at 1 µM [3] turn out when CCc1cc(Nc2ncn(-c3ncncc3F)n2)cc(N2CCN(C3COC3)CC2)c1 [Compound 50, N-[3-ethyl-5-[4-(oxetan-3-yl)piperazin-1-yl]phenyl]-1-(5-fluoropyrimidin-4-yl)-1,2,4-triazol-3-amine] was run?
Answer: Its fold induction at 1 µM is ≤ 1.

Question: What about the fold induction at 10 µM [4] of the same molecule?
Answer: The fold induction at 10 µM was 1000 to 10000.

Question: Which results are given for Cc1cc(Nc2ncn(-c3cccc(F)c3)n2)c(F)c(OC2CCOC2)c1 (stereo not shown) [Compound 913, N-(2-fluoro-5-methyl-3-tetrahydrofuran-3-yloxy-phenyl)-1-(3-fluorophenyl)-1,2,4-triazol-3-amine]?
Answer: fold induction at 1 µM [5]: 10 to 100; fold induction at 10 µM [6]: 10 to 100

Question: Which fold induction at 1 µM [3] does the source give for Cc1cc(Nc2ncn(-c3cc(F)cc(N4CC[C@@H](C(C)(C)O)C4)c3)n2)cc(N2CCN(C3COC3)CC2)c1 [Compound 318, 2-[(3R)-1-[3-fluoro-5-[3-[3-methyl-5-[4-(oxetan-3-yl)piperazin-1-yl]anilino]-1,2,4-triazol-1-yl]phenyl]pyrrolidin-3-yl]propan-2-ol] here?
Answer: Its fold induction at 1 µM is 10 to 100.

Question: And the fold induction at 10 µM [4]?
Answer: Its fold induction at 10 µM is ≤ 1.

Question: CN(C)C1CCN(c2cc(F)cc(Nc3ncn(-c4ccc(F)cc4F)n3)c2)C1 (stereo not shown) [Compound 347, 1-(2,4-difluorophenyl)-N-[3-[3-(dimethylamino)pyrrolidin-1-yl]-5-fluoro-phenyl]-1,2,4-triazol-3-amine] was tested. Which fold induction at 1 µM [3] did it give?
Answer: The fold induction at 1 µM was ≤ 1.

Question: And the fold induction at 10 µM [4]?
Answer: The fold induction at 10 µM was ≤ 1.

Question: CCN(C)Cc1cc(F)cc(-n2cnc(Nc3cc(C)cc(N4CCN(C5COC5)CC4)c3)n2)c1 [Compound 187, 1-[3-[[ethyl(methyl)amino]methyl]-5-fluoro-phenyl]-N-[3-methyl-5-[4-(oxetan-3-yl)piperazin-1-yl]phenyl]-1,2,4-triazol-3-amine] was tested. Which fold induction at 1 µM [3] did it give?
Answer: The fold induction at 1 µM was 100 to 1000.

Question: And the fold induction at 10 µM [4]?
Answer: The fold induction at 10 µM was ≤ 1.

Question: With Cc1cc(Nc2ncn(-c3cc(F)cc(F)c3)n2)cc(N2CCC3(CCO3)C2)c1 (stereo not shown) [Compound 901, 1-(3,5-difluorophenyl)-N-[3-methyl-5-(1-oxa-7-azaspiro[3.4]octan-7-yl)phenyl]-1,2,4-triazol-3-amine] as the molecule, how does the fold induction at 1 µM [5] read?
Answer: Its fold induction at 1 µM is 1 to 10.

Question: What about the fold induction at 10 µM [6] of the same molecule?
Answer: Its fold induction at 10 µM is ≤ 1.

Question: Which results are given for Cc1cc(Nc2ncn(-c3cc(F)cc(F)c3)n2)nc(C2=CCNCC2)c1 [Compound 631, N-[1-(3,5-difluorophenyl)-1,2,4-triazol-3-yl]-4-methyl-6-(1,2,3,6-tetrahydropyridin-4-yl)pyridin-2-amine]?
Answer: fold induction at 1 µM [1]: 1 to 10; fold induction at 10 µM [2]: 1 to 10

Question: For CC1CCN(c2cc(Nc3ncn(-c4ccccc4)n3)cc(C3CC3)n2)CC1 [Compound 44, 2-cyclopropyl-6-(4-methyl-1-piperidyl)-N-(1-phenyl-1,2,4-triazol-3-yl)pyridin-4-amine], which fold induction at 1 µM [3] is on record?
Answer: The fold induction at 1 µM was 1000 to 10000.

Question: And the fold induction at 10 µM [4]?
Answer: The fold induction at 10 µM was 1000 to 10000.

Question: Which fold induction at 1 µM [3] does the source give for Cc1cc(Nc2ncn(-c3cc(F)cc(F)c3)n2)cc(O[C@@H]2CCN(C3COC3)C2)c1 [Compound 178, 1-(3,5-difluorophenyl)-N-[3-methyl-5-[(3R)-1-(oxetan-3-yl)pyrrolidin-3-yl]oxy-phenyl]-1,2,4-triazol-3-amine] here?
Answer: The fold induction at 1 µM was 1000 to 10000.

Question: What about the fold induction at 10 µM [4] of the same molecule?
Answer: The fold induction at 10 µM was 1 to 10.

Question: With Cc1cc(OCC2COC2)cc(Nc2ncn(-c3cc(F)cc(F)c3)n2)c1C [Compound 909, 1-(3,5-difluorophenyl)-N-[2,3-dimethyl-5-(oxetan-3-ylmethoxy)phenyl]-1,2,4-triazol-3-amine] as the molecule, how does the fold induction at 1 µM [5] read?
Answer: The fold induction at 1 µM was 1 to 10.

Question: And the fold induction at 10 µM [6]?
Answer: The fold induction at 10 µM was 10 to 100.

Question: How did the fold induction at 1 µM [3] turn out when CCOc1nccc(-n2cnc(Nc3cc(C)cc(N4CCN(C5COC5)CC4)c3)n2)n1 [Compound 204, 1-(2-ethoxypyrimidin-4-yl)-N-[3-methyl-5-[4-(oxetan-3-yl)piperazin-1-yl]phenyl]-1,2,4-triazol-3-amine] was run?
Answer: Its fold induction at 1 µM is ≤ 1.

Question: And the fold induction at 10 µM [4]?
Answer: Its fold induction at 10 µM is ≤ 1.

Question: Which fold induction at 1 µM [5] does the source give for Cc1cc(Nc2ncn(-c3cc(F)cc(F)c3)n2)cc(NC2CCOCC2N2CCCC2)c1 (stereo not shown) [Compound 884, N3-[1-(3,5-difluorophenyl)-1,2,4-triazol-3-yl]-5-methyl-N1-(3-pyrrolidin-1-yltetrahydropyran-4-yl)benzene-1,3-diamine] here?
Answer: Its fold induction at 1 µM is 1 to 10.

Question: What about the fold induction at 10 µM [6] of the same molecule?
Answer: The fold induction at 10 µM was ≤ 1.

Question: Cc1cc(Nc2ncn(-c3cc(F)cc(F)c3)n2)nc(NC2CCOC2)c1 (stereo not shown) [Compound 614, N6-[1-(3,5-difluorophenyl)-1,2,4-triazol-3-yl]-4-methyl-N2-tetrahydrofuran-3-yl-pyridine-2,6-diamine] was tested. Which fold induction at 1 µM [1] did it give?
Answer: The fold induction at 1 µM was 1 to 10.

Question: And the fold induction at 10 µM [2]?
Answer: Its fold induction at 10 µM is 1 to 10.

Question: How did the “Fold myelin pixels above background relative to baseline of no added compound” value (1.0 μM compound) turn out when Cc1cc(Nc2ncn(-c3cc(F)cc(F)c3)n2)cc(N2CCOC(C3CCCO3)C2)c1 (stereo not shown) [Compound 972, 1-(3,5-difluorophenyl)-N-[3-methyl-5-(2-tetrahydrofuran-2-ylmorpholin-4-yl)phenyl]-1,2,4-triazol-3-amine] was run?
Answer: Its value is “− (≤1)”.

Question: What about the “Fold myelin pixels above background relative to baseline of no added compound” value (10.0 μM compound) of the same molecule?
Answer: The value was “+ (>1 to 10x)”.

Question: For Cc1cc(Nc2ncn(-c3ccccc3)n2)cc(N2CCN(C)C(=O)C2)c1 [Compound 76, 1-methyl-4-[3-methyl-5-[(1-phenyl-1,2,4-triazol-3-yl)amino]phenyl]piperazin-2-one], which fold induction at 1 µM [3] is on record?
Answer: Its fold induction at 1 µM is 100 to 1000.

Question: And the fold induction at 10 µM [4]?
Answer: Its fold induction at 10 µM is 100 to 1000.

Question: For CC(C)(C)N1CCN(c2cc(Nc3ncn(-c4cc(F)cc(F)c4)n3)cc(N3CCN(C(C)(C)C)CC3)c2)CC1 [Compound 573, N-[3,5-bis(4-tert-butylpiperazin-1-yl)phenyl]-1-(3,5-difluorophenyl)-1,2,4-triazol-3-amine], which fold induction at 1 µM [1] is on record?
Answer: The fold induction at 1 µM was 1 to 10.

Question: What about the fold induction at 10 µM [2] of the same molecule?
Answer: The fold induction at 10 µM was 1 to 10.

Question: Cc1cc(Nc2ncn(-c3ccnc(F)c3)n2)cc(N2CCOCC2)c1 [Compound 403, 1-(2-fluoro-4-pyridyl)-N-(3-methyl-5-morpholino-phenyl)-1,2,4-triazol-3-amine] was tested. Which fold induction at 1 µM [1] did it give?
Answer: Its fold induction at 1 µM is 1000 to 10000.

Question: And the fold induction at 10 µM [2]?
Answer: Its fold induction at 10 µM is 10 to 100.

Question: How did the fold induction at 1 µM [5] turn out when COCCCN1CCCN(c2cc(C)cc(Nc3ncn(-c4cc(F)cc(F)c4)n3)c2)CC1 [Compound 896, 1-(3,5-difluorophenyl)-N-[3-[4-(3-methoxypropyl)-1,4-diazepan-1-yl]-5-methyl-phenyl]-1,2,4-triazol-3-amine] was run?
Answer: The fold induction at 1 µM was 1 to 10.

Question: And the fold induction at 10 µM [6]?
Answer: The fold induction at 10 µM was 1 to 10.

Question: What does the source list for Cc1cc(Nc2ncn(-c3cc(F)cc(F)c3)n2)cc(N2CCNCC2=O)c1 [Compound 93, 1-[3-[[1-(3,5-difluorophenyl)-1,2,4-triazol-3-yl]amino]-5-methyl-phenyl]piperazin-2-one]?
Answer: fold induction at 1 µM [3]: 10 to 100; fold induction at 10 µM [4]: 100 to 1000

Question: Which results are given for CN1CCN(c2cc(Nc3ncn(-c4ccnc(F)c4)n3)cc(C(F)(F)F)c2)CC1 [Compound 226, 1-(2-fluoro-4-pyridyl)-N-[3-(4-methylpiperazin-1-yl)-5-(trifluoromethyl)phenyl]-1,2,4-triazol-3-amine]?
Answer: fold induction at 1 µM [3]: 100 to 1000; fold induction at 10 µM [4]: ≤ 1

Question: Cc1cc(Nc2ncn(-c3cnccn3)n2)cc(C2(C)CN(C)C(=O)O2)c1 (stereo not shown) [Compound 846, 3,5-dimethyl-5-[3-methyl-5-[(1-pyrazin-2-yl-1,2,4-triazol-3-yl)amino]phenyl]oxazolidin-2-one] was tested. Which fold induction at 1 µM [5] did it give?
Answer: The fold induction at 1 µM was 10 to 100.

Question: What about the fold induction at 10 µM [6] of the same molecule?
Answer: Its fold induction at 10 µM is 1 to 10.

Question: Which results are given for COc1cc(Nc2ncn(-c3cc(F)cc(F)c3)n2)nc(N2CCN(C3COC3)CC2)c1 [Compound 599, N-[1-(3,5-difluorophenyl)-1,2,4-triazol-3-yl]-4-methoxy-6-[4-(oxetan-3-yl)piperazin-1-yl]pyridin-2-amine]?
Answer: fold induction at 1 µM [1]: 10 to 100; fold induction at 10 µM [2]: 10 to 100

Question: Which fold induction at 1 µM [1] does the source give for CC(C)c1cc(Nc2ncn(-c3cccc(F)c3)n2)cc(N2CCN(C3COC3)CC2)c1 [Compound 523, 1-(3-fluorophenyl)-N-[3-isopropyl-5-[4-(oxetan-3-yl)piperazin-1-yl]phenyl]-1,2,4-triazol-3-amine] here?
Answer: Its fold induction at 1 µM is 100 to 1000.

Question: What about the fold induction at 10 µM [2] of the same molecule?
Answer: Its fold induction at 10 µM is ≤ 1.

Question: Cc1cc(Nc2ncn(-c3cccnc3)n2)cc(C2COC2)c1 [Compound 270, N-[3-methyl-5-(oxetan-3-yl)phenyl]-1-(3-pyridyl)-1,2,4-triazol-3-amine] was tested. Which fold induction at 1 µM [3] did it give?
Answer: Its fold induction at 1 µM is 100 to 1000.

Question: And the fold induction at 10 µM [4]?
Answer: The fold induction at 10 µM was 100 to 1000.

Question: How did the fold induction at 1 µM [5] turn out when [2H]C1([2H])N(CCO)C([2H])([2H])C([2H])([2H])N(c2cc(C)cc(Nc3ncn(-c4cc(F)cc(F)c4)n3)c2)C1([2H])[2H] [Compound 922, 2-[2,2,3,3,5,5,6,6-octadeuterio-4-[3-[[1-(3,5-difluorophenyl)-1,2,4-triazol-3-yl]amino]-5-methyl-phenyl]piperazin-1-yl]ethanol] was run?
Answer: Its fold induction at 1 µM is 1 to 10.

Question: What about the fold induction at 10 µM [6] of the same molecule?
Answer: Its fold induction at 10 µM is ≤ 1.

Question: What does the source list for Cc1cc(Nc2ncn(-c3cc(F)cc(F)c3)n2)cc(N2CCC(N(C)CCO)CC2)c1 [Compound 1015, 2-[[1-[3-[[1-(3,5-difluorophenyl)-1,2,4-triazol-3-yl]amino]-5-methyl-phenyl]-4-piperidyl]-methyl-amino]ethanol]?
Answer: fold induction at 1 µM [5]: ≤ 1; fold induction at 10 µM [6]: ≤ 1

Question: For Cc1cc(Nc2ncn(-c3cc(F)cc(Cl)c3)n2)cc(N2CCN(C3COC3)CC2)c1 [Compound 32, 1-(3-chloro-5-fluoro-phenyl)-N-[3-methyl-5-[4-(oxetan-3-yl)piperazin-1-yl]phenyl]-1,2,4-triazol-3-amine], which fold induction at 1 µM [3] is on record?
Answer: The fold induction at 1 µM was 1000 to 10000.

Question: What about the fold induction at 10 µM [4] of the same molecule?
Answer: Its fold induction at 10 µM is 100 to 1000.

Question: Which results are given for Cc1cc(N2CCOCC2)cc(Nc2ncn(-c3cccnc3)n2)c1F [Compound 451, N-(2-fluoro-3-methyl-5-morpholino-phenyl)-1-(3-pyridyl)-1,2,4-triazol-3-amine]?
Answer: fold induction at 1 µM [1]: 1 to 10; fold induction at 10 µM [2]: 100 to 1000
